How the values were obtained:
[1] = biological target: interaction between claudin-4 and C-CPE (Homo sapiens, UniProt O14493); test: biochemical; format: binding
[2] = biological target: recombinant human claudin-4 protein (Homo sapiens, UniProt O14493); test: biochemical; format: binding
C-CPE = format: binding, Clostridium perfringens
[3] = tested on: claudin-4 (HT1080/CLDN4 cells); format: cell-based
[4] = tested on: claudin-3 (HT1080/CLDN3 cells); format: cell-based
Caco-2 cell monolayer = format: cell-based, human
Procedure: Caco-2 cells were allowed to differentiate for 10 to 14 days on Transwell filters (diameter, 6.5 mm; pore size, 0.4 µm; Corning, Corning, MA, USA) before their use in TER and paracellular flux assays. Caco-2 cell monolayers had TER values of 600–800 Ω•cm^2. TER values were measured by using a Millicell-ERS epithelial volt–ohm meter (Millipore Corporation, Billerica, MA, USA). For the paracellular tracer flux assay, 100 µM dialysed FD-4 was added to the medium in the upper chamber. After 1 h of incubation, the medium was collected from the bottom chamber, and the amount of FD-4 was measured with a TriStar LB 941 microplate reader (Berthold Technologies).

Caco-2 cells = format: cell-based, human; conditions: 1–100 µM, 24 h; n = 3
Procedure: For analysis of thiostrepton-induced cytotoxicity on Caco-2 cells, a lactate dehydrogenase (LDH) release assay was performed according to the manufacturer’s instructions. After being treated with thiostrepton for 24 h, the level of LDH released into the culture medium was analysed. Treatment with 0.2% Tween-20 was used as a 100% lysis control. Absorbance was measured at a wavelength of 570 nm by using a TriStar LB 941 microplate reader (Berthold Technologies).

claudin-1 [5] = format: cell-based, human; conditions: n = 3
claudin-3 = format: cell-based, human; conditions: n = 3
claudin-4 [6] = format: cell-based, human; conditions: n = 3
CLDN1 = format: cell-based, human; conditions: n = 3
CLDN3 = format: cell-based, human; conditions: n = 3
CLDN4 = format: cell-based, human; conditions: n = 3
claudin-1 [7] = format: cell-based, human; conditions: 100 µM, 24 h
claudin-4 [8] = format: cell-based, human; conditions: 100 µM, 24 h
occludin = format: cell-based, human; conditions: 100 µM, 24 h
ZO-1 = format: cell-based, human; conditions: 100 µM, 24 h
Caco-2 cell monolayers = format: cell-based, human; conditions: 100 µM thiostrepton, apical sulfo-NHS-SS-biotin (606.7 Da) 10 min; Caco-2 monolayer
Procedure: Figure 5 Thiostrepton effect on paracellular tracer permeability. Caco-2 cell monolayers were treated with 100 µM thiostrepton or left untreated (control) and then apically incubated with sulfo-NHS-SS-biotin (606.7 Da; red) and counterstained with anti-ZO-1 antibody (green; TJ stain) and DAPI (blue; nuclear stain). […] Bar = 10 µm.
Localisation of claudins-1 and -4, occludin and ZO-1 on Caco-2 cells was assessed by immunofluorescence microscopy. Caco-2 cells were seeded on Transwell filters (diameter, 12 mm; pore size, 0.4 µm; Corning). After treatment with thiostrepton (100 µM) or no treatment for 24 h, the Caco-2 cells were fixed with methanol–acetone (1:1 v/v) for 5 min and then permeabilised with 0.2% Triton X-100 in PBS for 10 min. After non-specific binding had been blocked by incubation with 1% BSA in TBS buffer (20 mM Tris-HCl, pH 7.4, 40 mM NaCl) containing 0.05% Tween-20 (T-TBS) for 1 h, the cells were incubated with anti-claudin-1, -claudin-4, -occludin and -ZO-1 antibodies in 1% BSA in T-TBS for 1 h. After incubation of the cells with fluorescent secondary antibodies for 1 h, the immunofluorescence images were observed under an immunofluorescence microscope (Keyence, Tokyo, Japan). For visualisation of biotin passing through the TJ, Caco-2 cells treated with 100 µM thiostrepton or left untreated were apically labelled with sulfo-NHS-SS-biotin (606.7 Da) for 10 min. […]

rat jejunum [9] = format: in vivo; conditions: n = 4
rat jejunum [10] = conditions: in vivo
[11] = tested on: various human cancer cell lines; conditions: cited from earlier work
melanoma cells = conditions: cited from earlier work
breast cancer cells = conditions: cited from earlier work

interaction between claudin-4 and C-CPE, sequence (O14493 whole entry, looked up): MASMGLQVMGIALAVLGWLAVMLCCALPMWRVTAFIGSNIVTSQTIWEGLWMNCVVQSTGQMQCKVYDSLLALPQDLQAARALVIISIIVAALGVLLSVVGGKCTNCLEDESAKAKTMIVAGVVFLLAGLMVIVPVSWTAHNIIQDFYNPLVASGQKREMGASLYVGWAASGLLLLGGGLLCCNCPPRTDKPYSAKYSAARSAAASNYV
recombinant human claudin-4 protein, sequence (O14493 whole entry): as the sequence (O14493 whole entry, looked up) above

SMILES: C=C(NC(=O)C(=C)NC(=O)c1csc(C2=N[C@@H]3c4csc(n4)[C@H]4NC(=O)c5csc(n5)[C@H]([C@](C)(O)[C@@H](C)O)NC(=O)[C@H]5CSC(=N5)/C(=C/C)NC(=O)[C@H]([C@@H](C)O)NC(=O)c5csc(n5)[C@]3(CC2)NC(=O)[C@H](C)NC(=O)C(=C)NC(=O)[C@H](C)NC(=O)[C@H]([C@@H](C)CC)N[C@@H]2C=Cc3c([C@H](C)O)cc(nc3[C@H]2O)C(=O)O[C@@H]4C)n1)C(N)=O [Thiostrepton]
- IC50 [1]: 1020 nM
- TR-FRET (% of control), inhibition of TR-FRET signal by interaction between claudin-4 and C-CPE [1]: 66.24 % of control
- Kd [2]: 6.62 µM
- binding to C-CPE (C-CPE): did not bind to C-CPE
- inhibition of C-CPE binding to claudin-4 on the cell membrane [3]: inhibited the binding of C-CPE to claudin-4 on the cell membrane
- inhibition of C-CPE interaction with claudin-3 [4]: inhibited the interaction between C-CPE and claudin-3, but this effect was substantially weaker than that for claudin-4
- TER (%) (Caco-2 cell monolayer; 10 µM, 24 h, percentage of the TER value at 0 h): 55.2%
- attenuation of barrier function of Caco-2 cells, comparison among hits (Caco-2 cell monolayer; among the hit compounds, Supplementary Figure 4, 10 µM, 24 h): greatest attenuation of the barrier function of Caco-2 cells
- paracellular flux of FD-4 (Caco-2 cell monolayer; thiostrepton 1–100 µM, 24 h, Caco-2 apical to basal, 100 µM FD-4 1 h, fluorescence plate reader, n = 3): dose-dependent increase in the paracellular flux of FD-4
- effect on TER value of Caco-2 cells (Caco-2 cell monolayer; thiostrepton 1–100 µM, 12, 18, 24 h, then 24 h after medium change, n = 3): reversibly decreased the TER value of Caco-2 cells in a time- and dose-dependent manner
- cytotoxicity to Caco-2 cells (LDH release) (Caco-2 cells): not cytotoxic to Caco-2 cells in the concentration range of 1–100 µM
- claudin-1 protein, 1% Triton-X-insoluble fraction (claudin-1 [5]): unchanged
- claudin-1 protein, 1% Triton-X-soluble fraction (claudin-1 [5]): significantly decreased
- claudin-3 protein, 1% Triton-X-insoluble fraction (claudin-3): unchanged
- claudin-3 protein, 1% Triton-X-soluble fraction (claudin-3): significantly decreased
- claudin-4 protein, 1% Triton-X-insoluble fraction (claudin-4 [6]): increased
- claudin-4 protein, 1% Triton-X-soluble fraction (claudin-4 [6]): increased
- claudin-1 mRNA level (CLDN1): significantly decreased
- claudin-3 mRNA level (CLDN3): significantly decreased
- claudin-4 mRNA level (CLDN4): increased
- cellular localisation of claudin-1 (claudin-1 [7]): did not alter the cellular localisation
- cellular localisation of claudin-4 (claudin-4 [8]): did not alter the cellular localisation
- cellular localisation of occludin (occludin): did not alter the cellular localisation
- cellular localisation of ZO-1 (ZO-1): did not alter the cellular localisation
- biotin permeation (Caco-2 cell monolayers): biotin signal was detected within the paracellular space
- maximum plasma FD-4 concentration (rat jejunum [9]): 0.6 µg/mL
- rat jejunal absorption of FD-4 (rat jejunum [9]): enhanced rat jejunal absorption of FD-4 in a dose-dependent manner
- intestinal tissue toxicity (histochemical analysis) (rat jejunum [10]): no evidence of intestinal tissue toxicity
- anti-tumour activity [11]: shows anti-tumour activity in various human cancer cell lines
- effect on melanoma cells (melanoma cells): suppresses cell growth and induces apoptosis
- effect on breast cancer cells (breast cancer cells): leads to cell-cycle arrest and cell death by down-regulating FOXM1 gene expression
